Measured values published in paper PMC9489211, “Regulation of pulmonary surfactant by the adhesion GPCR GPR116/ADGRF5 requires a tethered agonist-mediated activation mechanism” (eLife, 2022).
Like-named read-outs stand apart in the source and are kept apart here. Where a SMILES comes first, the peptide text is derived from it. Where no end group is shown, it is not given here. [ ]: non-standard residue; d: D form. Nle = CCCC[C@H](N)C(=O)O

T1: full-length mGPR116 (HEK293 clone 3C) (Mus musculus, UniProt G5E8Q8)
T1 construct: expressed in transfected cells
T1 sequence (G5E8Q8 22-1348): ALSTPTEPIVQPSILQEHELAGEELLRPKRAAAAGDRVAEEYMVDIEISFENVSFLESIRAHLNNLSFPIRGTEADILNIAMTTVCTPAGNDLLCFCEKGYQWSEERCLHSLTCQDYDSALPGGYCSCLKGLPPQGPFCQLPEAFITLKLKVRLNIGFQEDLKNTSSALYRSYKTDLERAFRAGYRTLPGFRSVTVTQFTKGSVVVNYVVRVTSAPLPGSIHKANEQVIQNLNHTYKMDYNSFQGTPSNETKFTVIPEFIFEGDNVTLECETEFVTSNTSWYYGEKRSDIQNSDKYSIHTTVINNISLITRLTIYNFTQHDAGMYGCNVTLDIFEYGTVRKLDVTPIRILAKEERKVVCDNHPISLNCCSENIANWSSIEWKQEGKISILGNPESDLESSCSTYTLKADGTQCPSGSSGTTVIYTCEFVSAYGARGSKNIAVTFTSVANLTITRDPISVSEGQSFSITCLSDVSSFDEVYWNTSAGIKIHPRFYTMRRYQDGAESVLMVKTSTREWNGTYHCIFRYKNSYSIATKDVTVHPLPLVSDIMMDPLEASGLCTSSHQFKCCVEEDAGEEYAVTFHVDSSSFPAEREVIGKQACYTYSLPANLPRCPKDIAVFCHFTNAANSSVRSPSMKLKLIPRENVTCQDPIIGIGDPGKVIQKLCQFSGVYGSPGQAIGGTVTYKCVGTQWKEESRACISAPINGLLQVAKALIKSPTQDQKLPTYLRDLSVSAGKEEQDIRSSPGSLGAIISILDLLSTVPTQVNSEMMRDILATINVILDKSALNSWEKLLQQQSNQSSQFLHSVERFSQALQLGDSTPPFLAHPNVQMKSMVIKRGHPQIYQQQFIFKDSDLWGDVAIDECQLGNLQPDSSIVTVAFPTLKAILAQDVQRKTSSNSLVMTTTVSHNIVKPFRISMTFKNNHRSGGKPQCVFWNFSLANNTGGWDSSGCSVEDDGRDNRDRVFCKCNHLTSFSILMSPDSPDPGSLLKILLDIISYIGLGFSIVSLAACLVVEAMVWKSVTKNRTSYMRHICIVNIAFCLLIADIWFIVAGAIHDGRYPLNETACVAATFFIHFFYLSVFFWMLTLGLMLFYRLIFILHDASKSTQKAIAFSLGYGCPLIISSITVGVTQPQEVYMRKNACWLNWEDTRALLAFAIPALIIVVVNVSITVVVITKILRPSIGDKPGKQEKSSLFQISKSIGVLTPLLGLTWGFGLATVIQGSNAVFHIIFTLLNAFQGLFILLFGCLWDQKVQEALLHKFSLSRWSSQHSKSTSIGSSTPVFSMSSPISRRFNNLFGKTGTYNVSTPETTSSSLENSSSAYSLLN

T2: full-length hGPR116 (HEK293 clone A6) (Homo sapiens, UniProt Q8IZF2)
T2 construct: expressed in transfected cells
T2 sequence (Q8IZF2 22-1346): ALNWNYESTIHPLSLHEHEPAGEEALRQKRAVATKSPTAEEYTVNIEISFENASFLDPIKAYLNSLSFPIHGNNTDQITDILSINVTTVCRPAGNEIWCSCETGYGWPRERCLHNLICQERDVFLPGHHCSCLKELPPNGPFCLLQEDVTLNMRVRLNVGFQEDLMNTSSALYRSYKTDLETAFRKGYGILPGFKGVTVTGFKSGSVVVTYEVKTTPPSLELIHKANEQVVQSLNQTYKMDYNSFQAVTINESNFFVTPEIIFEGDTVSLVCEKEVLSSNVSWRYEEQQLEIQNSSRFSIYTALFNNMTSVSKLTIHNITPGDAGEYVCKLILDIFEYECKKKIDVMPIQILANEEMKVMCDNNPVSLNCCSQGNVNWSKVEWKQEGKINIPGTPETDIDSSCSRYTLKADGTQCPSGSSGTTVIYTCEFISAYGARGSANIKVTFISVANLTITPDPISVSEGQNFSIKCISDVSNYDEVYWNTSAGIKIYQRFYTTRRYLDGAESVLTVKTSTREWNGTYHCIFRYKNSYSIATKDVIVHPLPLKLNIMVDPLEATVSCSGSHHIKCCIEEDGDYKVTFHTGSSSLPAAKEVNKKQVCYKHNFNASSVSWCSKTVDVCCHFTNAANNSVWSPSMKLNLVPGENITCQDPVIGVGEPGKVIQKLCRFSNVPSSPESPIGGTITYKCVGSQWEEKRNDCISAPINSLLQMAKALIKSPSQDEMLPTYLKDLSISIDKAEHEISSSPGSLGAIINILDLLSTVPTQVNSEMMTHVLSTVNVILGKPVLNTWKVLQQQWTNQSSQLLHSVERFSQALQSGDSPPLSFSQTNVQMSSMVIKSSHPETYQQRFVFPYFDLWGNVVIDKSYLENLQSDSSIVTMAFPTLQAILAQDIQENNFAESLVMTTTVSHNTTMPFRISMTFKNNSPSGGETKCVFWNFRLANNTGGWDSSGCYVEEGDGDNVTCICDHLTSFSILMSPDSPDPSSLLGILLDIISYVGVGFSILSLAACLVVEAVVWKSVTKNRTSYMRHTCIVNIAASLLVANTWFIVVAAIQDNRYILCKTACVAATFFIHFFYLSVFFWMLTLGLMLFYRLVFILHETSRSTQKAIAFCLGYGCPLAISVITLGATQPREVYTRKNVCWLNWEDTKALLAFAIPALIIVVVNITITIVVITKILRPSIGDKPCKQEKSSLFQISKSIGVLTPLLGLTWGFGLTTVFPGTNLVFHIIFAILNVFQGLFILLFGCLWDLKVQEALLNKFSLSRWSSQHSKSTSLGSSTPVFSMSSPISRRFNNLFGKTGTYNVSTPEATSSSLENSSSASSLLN

T3: mouse GPR116 full-length, V5 tagged, clone 1D8 (mouse) (UniProt G5E8Q8)
T3 sequence: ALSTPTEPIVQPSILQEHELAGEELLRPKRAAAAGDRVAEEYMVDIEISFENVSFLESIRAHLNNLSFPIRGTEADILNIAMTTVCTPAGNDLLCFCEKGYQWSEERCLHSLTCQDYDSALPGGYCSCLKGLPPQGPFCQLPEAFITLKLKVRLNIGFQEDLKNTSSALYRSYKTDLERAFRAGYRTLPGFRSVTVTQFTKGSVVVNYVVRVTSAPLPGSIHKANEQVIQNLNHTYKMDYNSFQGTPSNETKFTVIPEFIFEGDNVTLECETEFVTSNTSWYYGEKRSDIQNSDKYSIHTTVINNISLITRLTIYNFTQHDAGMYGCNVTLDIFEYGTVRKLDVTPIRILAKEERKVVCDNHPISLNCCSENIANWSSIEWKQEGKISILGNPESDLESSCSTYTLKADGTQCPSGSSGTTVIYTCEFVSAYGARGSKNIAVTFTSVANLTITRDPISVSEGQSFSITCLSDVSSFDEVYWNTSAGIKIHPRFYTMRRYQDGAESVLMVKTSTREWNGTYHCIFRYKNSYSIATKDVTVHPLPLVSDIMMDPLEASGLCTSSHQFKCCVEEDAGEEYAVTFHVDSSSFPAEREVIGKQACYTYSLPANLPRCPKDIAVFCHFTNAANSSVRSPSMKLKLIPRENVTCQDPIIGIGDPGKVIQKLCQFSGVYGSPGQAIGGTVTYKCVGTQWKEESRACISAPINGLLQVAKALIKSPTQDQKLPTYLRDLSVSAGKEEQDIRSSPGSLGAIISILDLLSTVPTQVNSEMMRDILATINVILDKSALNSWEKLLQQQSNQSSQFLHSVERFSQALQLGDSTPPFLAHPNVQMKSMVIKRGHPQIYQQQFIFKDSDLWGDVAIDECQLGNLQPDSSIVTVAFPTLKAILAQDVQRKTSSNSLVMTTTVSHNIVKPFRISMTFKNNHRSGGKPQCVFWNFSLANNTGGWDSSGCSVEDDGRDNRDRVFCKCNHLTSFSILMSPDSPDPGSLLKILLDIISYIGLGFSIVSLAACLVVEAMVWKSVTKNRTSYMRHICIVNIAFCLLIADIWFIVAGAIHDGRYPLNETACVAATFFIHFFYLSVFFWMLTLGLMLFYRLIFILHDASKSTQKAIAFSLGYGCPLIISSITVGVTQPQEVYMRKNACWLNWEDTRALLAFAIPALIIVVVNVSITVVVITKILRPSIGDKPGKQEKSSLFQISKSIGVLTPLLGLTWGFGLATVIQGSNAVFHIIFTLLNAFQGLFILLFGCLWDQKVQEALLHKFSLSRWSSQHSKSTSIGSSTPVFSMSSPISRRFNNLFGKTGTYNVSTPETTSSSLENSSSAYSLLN


Experiments:
[1] = target: T1, full-length mGPR116 (HEK293 clone 3C); assay: Calcium transient assay, full-length mGPR116 stably expressed in HEK293 (clone 3C); assay type: cell-based; details: for activation of the mouse full-length receptor (in words): calcium flux assays, Figure 3F
Protocol: (§1) For some constructs, stable populations were generated by treating the cells with G418. After complete selection of resistant cells, these were used in assays. Stable HEK293 clones for full-length hGPR116 (clone A6) and mGPR116 (clone 3C) were described earlier ([Brown et al., 2017]).
(§2) HEK293 cells were seeded in 384-well plates (Greiner, #781946) at 30,000 cells/well. Medium was removed the following day and cells were loaded for 2 hr at 37°C, 5% CO2 with 20 µl Calcium 6 loading buffer (Molecular Devices, Cat# R8191): 1× HBSS (Gibco, Cat# 14065.049) containing 20 mM HEPES (Gibco, Cat#15630) and 2.5 mM probenecid (Sigma, Cat# P8761). Plates were then transferred to a FDSS7000 fluorescence plate reader (HAMAMATSU, Japan) and Ca^2+ responses were measured in real time using a CCD camera with excitation 480 nm/emission 540 nm. Prior to stimulation, baseline measurements were recorded over 5 s (Fmin). For stimulation, 20 µl of test compounds prepared 2× in HBSS containing 20 mM HEPES were dispensed. Fluorescence was read over 1–1.5 min. Maximum fluorescence (Fmax) was determined and normalized to baseline. Data are reported as ∆F/F = (Fmax – Fmin)/Fmin. Adequate response of the endogenous M3R was verified for each transfection, using carbachol at 100 µM and following the same procedure as for the peptide activation.
(§3) Concentration response curves were analyzed using GraphPad Prism 9.2.0. Potency was determined using a nonlinear regression model with variable slope, and statistical significance was determined using a one-way ANOVA followed by Dunnett’s multiple comparison test or a TTEST for comparison of two data sets (*p<0.05, **p<0.01, ***p<0.001, ****p<0.0001, ns, not significant).

[2] = target: T2, full-length hGPR116 (HEK293 clone A6); assay: Calcium transient assay, full-length hGPR116 stably expressed in HEK293 (clone A6); assay type: cell-based; details: calcium transients, hFL clone A6, Figure 3-figure supplement 2 / Figure 7A
Protocol: as §1, §2, §3

[3] = target: T3, mouse GPR116 full-length, V5 tagged, clone 1D8 (mouse)

Molecule	activation of the mouse full-length receptor (in words) [1]	activation of the human full-length receptor (in words) [2]	EC50 of receptor activation (calcium transients), HEK293 cells stably expressing the receptor [3]	also measured
CCCC[C@H](NC(=O)[C@H](CC(C)C)NC(=O)[C@@H](NC(=O)[C@H](CO)NC(=O)[C@H](C)NC(=O)[C@H](CO)NC(=O)[C@@H](N)[C@@H](C)O)[C@@H](C)CC)C(=O)N[C@@H](CO)C(=O)N1CCC[C@H]1C(=O)N[C@@H](CC(=O)O)C(=O)O [GAP10-POS3] (H-TSASIL[Nle]SPD-OH; N-terminus and C-terminus assumed)	failed to activate	failed to activate	–	EC50 ([1]; calcium transient assay, HEK293 clone 3C, Fig 3F, independent experiment n=1 (mean of quadruplicate), read-out: EC50 (uM) n=1): > 100 µM; EC50 ([1]; calcium transient assay, HEK293 clone 3C, Fig 3F, independent experiment n=2 (mean of quadruplicate), read-out: EC50 (uM) n=2): > 100 µM; EC50 ([1]; calcium transient assay, HEK293 clone 3C, Fig 3F, independent experiment n=3 (mean of quadruplicate), read-out: EC50 (uM) n=3): > 100 µM; EC50 ([1]; calcium transient assay, HEK293 clone 3C, Fig 3F, mean of n=2-3 independent experiments, read-out: EC50 (uM) mean): > 100 µM
CCCC[C@H](NC(=O)[C@H](C)NC(=O)[C@@H](NC(=O)[C@H](CO)NC(=O)[C@H](Cc1ccccc1)NC(=O)[C@H](CO)NC(=O)[C@@H](N)[C@@H](C)O)[C@@H](C)CC)C(=O)N[C@@H](CO)C(=O)N1CCC[C@H]1C(=O)N[C@@H](CC(=O)O)C(=O)O [GAP10-POS6] (H-TSFSIA[Nle]SPD-OH; N-terminus and C-terminus assumed)	failed to activate	failed to activate	–	–
TSFSILASPD [GAP10-POS7]	failed to activate	failed to activate	–	–
TSFSILMSPD [GAP10]	–	–	–	EC50 (uM) n=1 ([1]; calcium transient assay, HEK293 clone 3C, Fig 3F, independent experiment n=1 (mean of quadruplicate)): 16.0 µM; EC50 (uM) n=2 ([1]; calcium transient assay, HEK293 clone 3C, Fig 3F, independent experiment n=2 (mean of quadruplicate)): 8.6 µM; EC50 (uM) n=3 ([1]; calcium transient assay, HEK293 clone 3C, Fig 3F, independent experiment n=3 (mean of quadruplicate)): 6.9 µM
TSFSIL[Nle]SPDSPDP [GAP14]	–	–	107 µM	–
TSFSIL[Nle]SPD [GAP10]	–	–	25 µM	–
PSFSIL[Nle]SPD [GAP10-Pro1]	–	–	17 µM	–
